Target: T1, Gag-Pol polyprotein [1148-1435] (Human immunodeficiency virus 1, UniProt P04585)
T1 construct: 1148-1435
Assay: In Vitro Integrase Assay
Protocol: The compound were evaluated in biochemical IN (integrase) assay that measure inhibitory potency (IC50 values)against both the 3'-processing(3'P)and strand transfer(ST)reaction.

| SMILES | IC50 |
| --- | --- |
| Cc1c2c(c(O)c(=O)n1C)C(=O)N(Cc1ccc(F)c(Cl)c1)C2=O [Bicyclic hydroxy-1H-pyrrolopyridine-trione, 5a] | 6.7 µM |
| Cc1c2c(c(O)c(=O)n1-c1ccccc1)C(=O)N(Cc1ccc(F)c(Cl)c1)C2=O [Bicyclic hydroxy-1H-pyrrolopyridine-trione, 5b] | 6.4 µM |
| CC(C)Cc1c2c(c(O)c(=O)n1C(C)C)C(=O)N(Cc1ccc(F)c(Cl)c1)C2=O [Bicyclic hydroxy-1H-pyrrolopyridine-trione, 5c] | 21.6 µM |
| CC(=O)OCc1c2c(c(O)c(=O)n1C(C)C)C(=O)N(Cc1ccc(F)c(Cl)c1)C2=O [Bicyclic hydroxy-1H-pyrrolopyridine-trione, 5d] | 15.6 µM |
| COC(=O)CCc1c2c(c(O)c(=O)n1C(C)C)C(=O)N(Cc1ccc(F)c(Cl)c1)C2=O [Bicyclic hydroxy-1H-pyrrolopyridine-trione, 5e] | 7.1 µM |
| CC(=O)OCc1[nH]c(=O)c(O)c2c1C(=O)N(Cc1ccc(F)c(Cl)c1)C2=O [Bicyclic hydroxy-1H-pyrrolopyridine-trione, 5f] | 12.3 µM |
| O=C1c2c(CO)[nH]c(=O)c(O)c2C(=O)N1Cc1ccc(F)c(Cl)c1 [Bicyclic hydroxy-1H-pyrrolopyridine-trione, 5g] | 6.5 µM |
